US8080246B2, “Colony stimulating factor 1 receptor (CSF1R) extracellular domain fusion molecules” (Five Prime Therapeutics, Inc., priority 2008, dated 2011)
Where two headings read alike, the source gives them in different places.

How the values were obtained:
EAE mouse model = conditions: for reduction in the EAE clinical score: relative to vehicle
Method: The CSF1R ECD fusion molecules were also tested for their ability to inhibit MS disease pathology in a mouse model of MS. These experiments used the mouse experimental autoimmune encephalomyelitis (EAE) model, which is widely used as a model of MS in humans. See, for example, Steinman and Zamvil, TRENDS in Immunology, 26(11):565-571 (2005). In the EAE model, disease progression and associated pathology may be measured according to the following EAE clinical score: no clinical disease (Score: 0); tail flaccidity (Score: 1); hind limb weakness (Score: 2); hind limb paralysis (Score: 3); forelimb paralysis or loss of ability to right from supine (stand up from a supine position) (Score: 4); and moribund (near death) or dead (Score: 5). […] The mCSF1R.506-Fc fusion protein (m506) was tested to determine whether it could decrease the EAE clinical scores or body weight loss. The mCSF1R.506-Fc fusion protein (SEQ ID NO.:8) was expressed and purified from the culture media of CHO cells stably transfected with the mCSF1R.506-Fc/pDEF38 plasmid vector as described in Example 2.
For the EAE mouse model experiments, 60 female C57BL/6 mice, age […], were divided into five groups: • Group 1: Vehicle control (Vehicle) (phosphate buffered saline, PBS), 100 μl, i.p., 3 times a week for up to 7 weeks; • Group 2: Methotrexate positive control (MTX), 10 mg/kg, i.v., q3d for up to 7 weeks; • Group 3: mCSF1R.506-Fc, 1 mg/kg, i.p., 3 times a week for up to 7 weeks; • Group 4: mCSF1R.506-Fc, 10 mg/kg, i.p., 3 times a week for up to 7 weeks; • Group 5: mCSF1R.506-Fc, 20 mg/kg, i.p., 3 times a week for up to 7 weeks.
Each group consisted of 12 mice. EAE induction was performed according to the following protocol: 300 ug of myelin oligodendrocyte glycoprotein (MOG)35-55 peptide was dissolved in 100 ul PBS and emulsified in an equal volume of complete Freund's adjuvant (CFA) containing 5 mg/ml Mycobacterium tuberculosis H37 RA. The emulsion (200 ul) was injected subcutaneously into the flank of the mice on days 0 and 7. Pertussis toxin (500 ng in 500 ul of PBS; List Biological Labs) was administered intravenously into each tail vein on days 0 and 2.
The MTX (10 mg/kg) was administered intravenously once every 3 days (q3d) for up to seven weeks starting on day 0; mCSF1R.506-Fc (1 mg/kg, 10 mg/kg, or 20 mg/kg), or vehicle (PBS) was administered intraperitoneally to the EAE mice in a 0.2 ml volume three times per week for 45 days, starting on day 0. The EAE clinical scores were measured prior to each dosing of PBS, MTX, or mCSF1R.506-Fc, using the above-mentioned scoring system. Body weights were recorded on day 0 before treatment was initiated, and were then measured at least twice per week including the day the study was terminated for seven weeks (on days 0, 2, 6, 8, 10, 13, 16, 17, 20, 22, 24, 27, 29, 31, 34, 36, 38, 41, 43, and 45).

CIA mouse model [1] = experiment: Mouse collagen-induced arthritis (CIA) model, Example 13 (clinical score, histology, serum PYD); type: in vivo; conditions: for clinical arthritis scores: FIG. 9; for serum pyridinoline (PYD) levels: vs vehicle control, ELISA, FIG. 12
CIA mouse model [2] = experiment: Mouse collagen-induced arthritis (CIA) model, Example 9; type: in vivo; conditions: relative to vehicle, p<0.01
human primary monocytes = experiment: Human monocyte viability (CellTiter-Glo ATP); type: cell-based; conditions: four days incubation; ATP levels; protein from 293-6E cells; read-out: IC50, inhibition of human monocyte viability
Method: Primary monocytes were isolated from human peripheral blood mononuclear cells (PBMC) through size sedimentation over Percoll columns as described (de Almeida et al., Mem Inst Oswaldo Cruz 95(2):221-223, (2000)). In this experiment, 1×10^4 freshly isolated human primary monocytes per well of a 96-well plate were incubated with the hCSF1R.506-GS-Fc or hCSF1R.512-GS-Fc fusion protein (0.01-120 nM) and the cells were incubated at 37° C. with 5% CO2. After four days, ATP levels in the cells were determined using the CellTiter-Glo Luminescent Cell Viability Assay Kit (Promega, Cat. No. G7571), according to the manufacturer's instructions, as a measurement of cell viability.

CSF1 = target: T1, CSF1 (Homo sapiens, UniProt P09603); experiment: Biacore SPR CSF1 ligand binding affinity and kinetics; conditions: proteins expressed in CHO cells; Biacore (Table 4)
T1 sequence (P09603 33-554): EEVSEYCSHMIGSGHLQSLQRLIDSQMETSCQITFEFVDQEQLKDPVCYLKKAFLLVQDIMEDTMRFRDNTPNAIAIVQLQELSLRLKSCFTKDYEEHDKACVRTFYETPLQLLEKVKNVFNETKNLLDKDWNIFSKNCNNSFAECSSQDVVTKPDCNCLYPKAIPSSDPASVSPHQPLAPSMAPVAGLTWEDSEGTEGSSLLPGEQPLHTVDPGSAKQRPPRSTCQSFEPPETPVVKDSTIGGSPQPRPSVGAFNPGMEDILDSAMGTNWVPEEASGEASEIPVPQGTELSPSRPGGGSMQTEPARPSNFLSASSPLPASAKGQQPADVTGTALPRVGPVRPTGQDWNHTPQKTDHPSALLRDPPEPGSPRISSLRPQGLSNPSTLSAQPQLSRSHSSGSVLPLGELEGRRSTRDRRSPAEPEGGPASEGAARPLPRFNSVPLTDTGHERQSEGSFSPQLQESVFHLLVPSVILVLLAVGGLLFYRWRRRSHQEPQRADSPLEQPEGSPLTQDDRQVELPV
Method: The CSF1 and IL34 ligand binding affinity and kinetics of the hCSF1R.506-GS-Fc and hCSF1R.512-GS-Fc fusion proteins were determined using Biacore® X surface plasmon resonance (SPR) technology (Uppsala, Sweden). CSF1 and IL34 are the only two ligands known to interact with the CSF1R ECD. The CSF1 and IL34 binding experiments were carried out using methodology similar to that described in Lin et al., Science 320:807-811, (2008).
In order to compare the relative ligand binding affinity of hCSF1R.506 (SEQ ID NO:2) and hCSF1R.506-Fc (SEQ ID NO:6) proteins expressed in CHO cells to CSF1, a Biacore® assay was used.

[3] = test system: CD115+ GR1- monocytes in the spleen; experiment: Depletion of CD115+ GR1- monocytes from spleen (flow cytometry); type: in vivo, mouse; conditions: DBA1 mice, 20 mg/kg i.p. 3 times per week, two weeks
Method: Male DBA1 mice were administered i.p. 3 times per week with saline or mCSF1R.506-Fc protein (SEQ ID NO:34) at 20 mg/kg. After two weeks of treatment, spleens were harvested for analysis of monocytes by flow cytometry as described (Liu et al., Science 324: 392 (2009)). Cells were stained at 4° C. in PBS with 5% (vol/vol) FBS. An LSR II (Becton Dickinson) was used for multiparameter flow cytometry of stained cell suspensions, followed by analysis with FlowJo software (TreeStar).

[4] = test system: peripheral blood monocytes (F4/80+, CD11b+); experiment: Depletion of mouse monocytes from peripheral blood after minicircle DNA tail vein transfection; type: in vivo; conditions: C57BL/6 mouse; 30 ug minicircle DNA by hydrodynamic tail vein transfection; about three weeks; vs saline
Method: The mCSF1R.506-GS-Fc fusion protein (SEQ ID NO.:34) was expressed in vivo to determine whether it could deplete mouse monocytes from peripheral blood as a measure of in vivo biological activity. For these experiments, the minicircle DNA vector (mCSF1R.506-GS-Fc/p2xC31MasterSfi) containing the polynucleotides encoding mCSF1R.506-GS-Fc described in Example 1 was employed. For these experiments, 30 ug of CSF1R.506-GS-Fc-encoding minicircle DNA was injected into a C57BL/6 mouse tail vein by hydrodynamic tail vein transfection (TVT) as described (Ozaki et al., J Immunol, 173(9):5361-5371 (2004)). Saline was injected as a negative control. Approximately three weeks after the tail vein injection, peripheral blood cells were isolated and monocyte levels were determined using FACS analysis with anti-CD11b and anti-F4/80 antibodies according to the manufacturer's instruction (BD Biosciences) to detect monocyte marker-positive cells (F4/80^+, CD11b^+).

## CN(Cc1cnc2nc(N)nc(N)c2n1)c1ccc(C(=O)N[C@@H](CCC(=O)O)C(=O)O)cc1 [MTX, Methotrexate, reference compound]
EAE mouse model; 10 mg/kg i.v. q3d, p<0.001
  reduction in the EAE clinical score: 95%

## ENBREL® [reference compound]
CIA mouse model [1]; 10 mg/kg i.p. daily
  clinical arthritis scores: inhibited clinical scores
CIA mouse model [1]; CIA mice
  serum pyridinoline (PYD) levels: not significant statistically
CIA mouse model [2]; 10 mg/kg i.p. twice weekly for 34 days
  inhibition of CIA arthritis score: about 40%

## hCSF1R.506-GS-Fc: Human CSF1R ECD lacking the six C-terminal residues fused to GS-Fc; SEQ ID NO. 32
Human primary monocytes
  IC50: 8.8 nM

## hCSF1R.506: human CSF1R ECD corresponding to SEQ ID NO.:2 (amino acids 1-506), without fusion partner
CSF1
  Kd: 28.9 nM
  ka, binding to CSF1: 2.80E+04 l/Ms
  kd, binding to CSF1: 0.000809 s⁻¹

## hCSF1R.512-GS-Fc: Full-length human CSF1R ECD fused to GS-Fc; SEQ ID NO. 31
Human primary monocytes
  IC50: 17.5 nM

## mCSF1R.506-Fc: Mouse CSF1R ECD lacking the five C-terminal residues fused to an Fc; SEQ ID NO. 8
CIA mouse model [1]; 2 mg/kg, 6 mg/kg and 20 mg/kg, compared to vehicle treated mice, FIG. 11
  inflammation, pannus formation, cartilage damage, bone resorption scores: significantly decreased inflammation, pannus formation, cartilage damage, and bone resorption
CIA mouse model [1]; 2, 6 and 20 mg/kg i.p., dose-dependent
  clinical arthritis scores: significantly reduced clinical arthritis scores
CIA mouse model [1]; CIA mice, FIG. 10
  pannus formation, cartilage damage, bone resorption in histologic joint sections: significantly decreased pannus formation, cartilage damage, and bone resorption
CIA mouse model [1]; CIA mice
  serum pyridinoline (PYD) levels: significantly lower
EAE mouse model; 1 mg/kg i.p. 3 times a week, p<0.001
  reduction in the EAE clinical score: 55%
EAE mouse model; 10 mg/kg i.p. 3 times a week, p<0.01
  reduction in the EAE clinical score: 40%
EAE mouse model; 20 mg/kg i.p. 3 times a week, p<0.001
  reduction in the EAE clinical score: 78%
EAE mouse model; EAE mice, average of three doses (1, 10, 20 mg/kg), p<0.01-0.001
  higher body weight relative to vehicle control: 8%
[3]; FIG. 14
  decrease in number of CD115+GR1- cells per spleen: more than 50%
[3]; vs saline, FIG. 13
  CD115+GR1- monocytes in the spleen: significant reduction
CIA mouse model [2]; 20 mg/kg i.p. daily for 34 days
  reduction of CIA arthritis score: about 75%

## mCSF1R.506-GS-Fc: Mouse CSF1R ECD lacking the five C-terminal residues fused to GS-Fc; SEQ ID NO. 34
[4]
  monocyte marker-positive cells (F4/80+, CD11b+) in peripheral blood: depletion of mouse monocytes from peripheral blood
